Source: patent US20240336654A1, “ANTIMICROBIAL PEPTIDOMIMETICS” (SPEXIS AG, priority 2021, published 2024)
Where a SMILES comes first, the peptide text is derived from it. Bridges are numbered along the chain shown (N, C = ends). [ ]: non-standard residue; d: D form. The star is where a group is joined. Val(Nα-amidino) = CC(C)[C@H](NC(=N)N)C(=O)*; Hyp = O=C(O)[C@@H]1C[C@@H](O)CN1; Pen = CC(C)(S)[C@H](N)C(=O)O; dDab = NCC[C@@H](N)C(=O)O; Dab = NCC[C@H](N)C(=O)O

Columns and labels:
Format in all cases: cell-based
[1] = system: Escherichia coli ATCC 25922; settings: ATCC 25922
Summary of the method: (§1)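 The MIC is the lowest peptide concentration, in μg/mL, with no visible growth after 18-20 h incubation at 35 °C. Serial two-fold peptide dilutions in water with 0.002% P-80 final were added to bacteria in cation-adjusted MHII broth, about 5×10^5 CFU/mL, following modified CLSI microdilution.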

[2] = system: Escherichia coli MCR-1 Af 45; settings: MCR-1 Af 45
Summary of the method: as §1

[3] = system: Klebsiella pneumoniae SSI3010; settings: SSI3010
Summary of the method: as §1

[4] = system: human red blood cells (hRBC); settings: red cells of human, 1 h, 200 μg/mL
Summary of the method: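 Percent hemolysis derived from OD540 of supernatants relative to full lysis by 2.5% Triton X-100 (PBS baseline). Washed fresh human erythrocytes (20% v/v) were exposed to 200 μg/mL peptide for 1 h at 37 °C with shaking.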

| Compound | Escherichia coli ATCC 25922 MIC [1] | Escherichia coli MCR-1 Af45 MIC [2] | Klebsiella pneumoniae SSI3010 MIC [3] | Hemolysis at 0.2 g/L [4] |
| --- | --- | --- | --- | --- |
| CC[C@H](C)[C@H](NC(=O)[C@@H]1C[C@@H](O)CN1C(=O)[C@@H](N)C(C)C)C(=O)N[C@H]1CCNC(=O)CC[C@@H](C(=O)N[C@@H](Cc2ccc(O)cc2)C(=O)O)NC(=O)[C@H](CCN)NC(=O)[C@H](CCN)NC(=O)[C@H](CCCCN)NC(=O)[C@@H](CCN)NC(=O)[C@H]([C@@H](C)O)NC(=O)[C@H](CCN)NC(=O)[C@H](CCCNC(=N)N)NC(=O)[C@H](CC(N)=O)NC(=O)[C@H](CO)NC(=O)[C@H](Cc2ccc(O)cc2)NC1=O [Example 78, Val-Hyp-Ile-Dab-Tyr-Ser-Asn-Arg-Dab-Thr-^DDab-Lys-Dab-Dab-Glu-Tyr] (H-V[Hyp]I[Dab]YSNR[Dab]T[dDab]K[Dab][Dab]EY-OH; lactam 4-15) | 0.125 µg/mL | 0.125 µg/mL | 0.25 µg/mL | <1% |
| CC[C@H](C)[C@H](NC(=O)[C@@H]1C[C@@H](O)CN1C(=O)[C@@H](N)C(C)C)C(=O)N[C@H]1CCC(=O)NCC[C@@H](C(=O)N[C@@H](Cc2ccc(O)cc2)C(=O)O)NC(=O)[C@H](CCN)NC(=O)[C@H](CCN)NC(=O)[C@H](CCCCN)NC(=O)[C@@H](CCN)NC(=O)[C@H]([C@@H](C)O)NC(=O)[C@H](CCN)NC(=O)[C@H](CCCNC(=N)N)NC(=O)[C@H](CC(N)=O)NC(=O)[C@H](CO)NC(=O)[C@H](Cc2ccc(O)cc2)NC1=O [Example 79, Val-Hyp-Ile-Glu-Tyr-Ser-Asn-Arg-Dab-Thr-^DDab-Lys-Dab-Dab-Dab-Tyr] (H-V[Hyp]IEYSNR[Dab]T[dDab]K[Dab][Dab][Dab]Y-OH; lactam 4-15) | 0.125 µg/mL | 0.0625 µg/mL | 0.25 µg/mL | <1% |
| CC[C@H](C)[C@H](NC(=O)[C@@H]1C[C@@H](O)CN1C(=O)[C@@H](NC(=N)N)C(C)C)C(=O)N[C@@H]1C(=O)N[C@@H](Cc2ccc(O)cc2)C(=O)N[C@@H]([C@@H](C)O)C(=O)N[C@@H](CC(N)=O)C(=O)N[C@@H](CCCNC(=N)N)C(=O)N[C@@H](CCN)C(=O)N[C@@H](CO)C(=O)N[C@H](CCN)C(=O)N[C@@H](CCCCN)C(=O)N[C@@H](CCN)C(=O)N[C@@H](CCN)C(=O)N[C@H](C(=O)N[C@@H](Cc2ccc(O)cc2)C(=O)O)CSSC1(C)C [Example 80, Gua-Val-Hyp-Ile-Pen-Tyr-Thr-Asn-Arg-Dab-Ser-^DDab-Lys-Dab-Dab-Cys-Tyr] ({Val(Nα-amidino)}-[Hyp]I[Pen]YTNR[Dab]S[dDab]K[Dab][Dab]CY-OH; disulfide 3-14) | 0.125 µg/mL | 0.0625 µg/mL | 0.125 µg/mL | <1% |

Further lines, with some results ahead:

| Escherichia coli ATCC 25922 MIC [1] | Escherichia coli MCR-1 Af45 MIC [2] | Klebsiella pneumoniae SSI3010 MIC [3] | Compound | Hemolysis at 0.2 g/L [4] |
| --- | --- | --- | --- | --- |
| 0.125 µg/mL | 0.125 µg/mL | 0.25 µg/mL | CC[C@H](C)[C@H](NC(=O)[C@@H]1C[C@@H](O)CN1C(=O)[C@@H](NC(=N)N)C(C)C)C(=O)N[C@@H]1C(=O)N[C@@H](Cc2ccc(O)cc2)C(=O)N[C@@H]([C@@H](C)O)C(=O)N[C@@H](CC(N)=O)C(=O)N[C@@H](CCCNC(=N)N)C(=O)N[C@@H](CCN)C(=O)N[C@@H]([C@@H](C)O)C(=O)N[C@H](CCN)C(=O)N[C@@H](CO)C(=O)N[C@@H](CCN)C(=O)N[C@@H](CCN)C(=O)N[C@H](C(=O)N[C@@H](Cc2ccc(O)cc2)C(=O)O)CSSC1(C)C [Example 81, Gua-Val-Hyp-Ile-Pen-Tyr-Thr-Asn-Arg-Dab-Thr-^DDab-Ser-Dab-Dab-Cys-Tyr] ({Val(Nα-amidino)}-[Hyp]I[Pen]YTNR[Dab]T[dDab]S[Dab][Dab]CY-OH; disulfide 3-14) | <1% |
| 0.125 µg/mL | 0.125 µg/mL | 0.25 µg/mL | CC[C@H](C)[C@H](NC(=O)[C@@H]1C[C@@H](O)CN1C(=O)[C@@H](NC(=N)N)C(C)C)C(=O)N[C@@H]1C(=O)N[C@@H](Cc2ccc(O)cc2)C(=O)N[C@@H]([C@@H](C)O)C(=O)N[C@@H](CC(N)=O)C(=O)N[C@@H](CCCNC(=N)N)C(=O)N[C@@H](CCN)C(=O)N[C@@H](CO)C(=O)N[C@H](CCN)C(=O)N[C@@H](CO)C(=O)N[C@@H](CCN)C(=O)N[C@@H](CCN)C(=O)N[C@H](C(=O)N[C@@H](Cc2ccc(O)cc2)C(=O)O)CSSC1(C)C [Example 82, Gua-Val-Hyp-Ile-Pen-Tyr-Thr-Asn-Arg-Dab-Ser-^DDab-Ser-Dab-Dab-Cys-Tyr] ({Val(Nα-amidino)}-[Hyp]I[Pen]YTNR[Dab]S[dDab]S[Dab][Dab]CY-OH; disulfide 3-14) | <1% |
| 0.03125 µg/mL | 0.03125 µg/mL | 0.125 µg/mL | CC[C@H](C)[C@H](NC(=O)[C@@H]1C[C@@H](O)CN1C(=O)[C@@H](NC(=N)N)C(C)C)C(=O)N[C@H]1CCNC(=O)CC[C@@H](C(=O)N[C@@H](Cc2ccc(O)cc2)C(=O)O)NC(=O)[C@H](CCN)NC(=O)[C@H](CCN)NC(=O)[C@H](CCCCN)NC(=O)[C@@H](CCN)NC(=O)[C@H]([C@@H](C)O)NC(=O)[C@H](CCN)NC(=O)[C@H](CCCNC(=N)N)NC(=O)[C@H](CC(N)=O)NC(=O)[C@H](CO)NC(=O)[C@H](Cc2ccc(O)cc2)NC1=O [Example 83, Gua-Val-Hyp-Ile-Dab-Tyr-Ser-Asn-Arg-Dab-Thr-^DDab-Lys-Dab-Dab-Glu-Tyr] ({Val(Nα-amidino)}-[Hyp]I[Dab]YSNR[Dab]T[dDab]K[Dab][Dab]EY-OH; lactam 3-14) | <1% |
| 0.0625 µg/mL | 0.03125 µg/mL | 0.125 µg/mL | CC[C@H](C)[C@H](NC(=O)[C@@H]1C[C@@H](O)CN1C(=O)[C@@H](NC(=N)N)C(C)C)C(=O)N[C@H]1CCNC(=O)CC[C@@H](C(=O)N[C@@H](Cc2ccc(O)cc2)C(=O)O)NC(=O)[C@H](CCN)NC(=O)[C@H](CCN)NC(=O)[C@H](CCCCN)NC(=O)[C@@H](CCN)NC(=O)[C@H](CO)NC(=O)[C@H](CCN)NC(=O)[C@H](CCCNC(=N)N)NC(=O)[C@H](CC(N)=O)NC(=O)[C@H](CO)NC(=O)[C@H](Cc2ccc(O)cc2)NC1=O [Example 84, Gua-Val-Hyp-Ile-Dab-Tyr-Ser-Asn-Arg-Dab-Ser-^DDab-Lys-Dab-Dab-Glu-Tyr] ({Val(Nα-amidino)}-[Hyp]I[Dab]YSNR[Dab]S[dDab]K[Dab][Dab]EY-OH; lactam 3-14) | <1% |
| 0.0625 µg/mL | 0.0625 µg/mL | 0.125 µg/mL | CC[C@H](C)[C@H](NC(=O)[C@@H]1C[C@@H](O)CN1C(=O)[C@@H](NC(=N)N)C(C)C)C(=O)N[C@H]1CCNC(=O)CC[C@@H](C(=O)N[C@@H](Cc2ccc(O)cc2)C(=O)O)NC(=O)[C@H](CCN)NC(=O)[C@H](CCN)NC(=O)[C@H](CCCCN)NC(=O)[C@@H](CCN)NC(=O)[C@H]([C@@H](C)O)NC(=O)[C@H](CCN)NC(=O)[C@H](CCCNC(=N)N)NC(=O)[C@H](CC(N)=O)NC(=O)[C@H]([C@@H](C)O)NC(=O)[C@H](Cc2ccc(O)cc2)NC1=O [Example 85, Gua-Val-Hyp-Ile-Dab-Tyr-Thr-Asn-Arg-Dab-Thr-^DDab-Lys-Dab-Dab-Glu-Tyr] ({Val(Nα-amidino)}-[Hyp]I[Dab]YTNR[Dab]T[dDab]K[Dab][Dab]EY-OH; lactam 3-14) | 1% |
